According to the NIST ThermoML archive (doi:10.1016/j.jct.2019.03.025):
Numbers after ± are expanded uncertainties.

Conditions: Liquid, Vibrating tube method

## Cc1cccc(C)c1 [1,3-dimethylbenzene]
293.15 K, 100 kPa
  mass density: 864.2 ± 0.9 kg/m3
293.15 K, 1000 kPa
  mass density: 864.4 ± 0.9 kg/m3
293.15 K, 3000 kPa
  mass density: 865.8 ± 0.9 kg/m3
293.15 K, 5000 kPa
  mass density: 866.9 ± 0.9 kg/m3
293.15 K, 10000 kPa
  mass density: 870.5 ± 0.9 kg/m3
293.15 K, 15000 kPa
  mass density: 873.8 ± 0.9 kg/m3
293.15 K, 20000 kPa
  mass density: 877 ± 0.9 kg/m3
293.15 K, 25000 kPa
  mass density: 880.2 ± 0.9 kg/m3
293.15 K, 30000 kPa
  mass density: 883.2 ± 0.9 kg/m3
293.15 K, 35000 kPa
  mass density: 886 ± 1 kg/m3
293.15 K, 40000 kPa
  mass density: 888.7 ± 1 kg/m3
293.15 K, 50000 kPa
  mass density: 894.4 ± 1 kg/m3
293.15 K, 60000 kPa
  mass density: 899.1 ± 1 kg/m3
303.15 K, 100 kPa
  mass density: 855 ± 0.9 kg/m3
303.15 K, 1000 kPa
  mass density: 855.4 ± 0.9 kg/m3
303.15 K, 3000 kPa
  mass density: 857.5 ± 0.9 kg/m3
303.15 K, 5000 kPa
  mass density: 858.8 ± 0.9 kg/m3
303.15 K, 10000 kPa
  mass density: 862.3 ± 0.9 kg/m3
303.15 K, 15000 kPa
  mass density: 865.8 ± 0.9 kg/m3
303.15 K, 20000 kPa
  mass density: 869 ± 0.9 kg/m3
303.15 K, 25000 kPa
  mass density: 872.2 ± 0.9 kg/m3
303.15 K, 30000 kPa
  mass density: 875.3 ± 0.9 kg/m3
303.15 K, 35000 kPa
  mass density: 878.2 ± 1 kg/m3
303.15 K, 40000 kPa
  mass density: 881 ± 1 kg/m3
303.15 K, 50000 kPa
  mass density: 886.7 ± 1 kg/m3
303.15 K, 60000 kPa
  mass density: 892 ± 1 kg/m3
313.15 K, 100 kPa
  mass density: 846.7 ± 0.9 kg/m3
313.15 K, 1000 kPa
  mass density: 846.9 ± 0.9 kg/m3
313.15 K, 3000 kPa
  mass density: 848.6 ± 0.9 kg/m3
313.15 K, 5000 kPa
  mass density: 850.1 ± 0.9 kg/m3
313.15 K, 10000 kPa
  mass density: 854 ± 0.9 kg/m3
313.15 K, 15000 kPa
  mass density: 857.6 ± 0.9 kg/m3
313.15 K, 20000 kPa
  mass density: 861.1 ± 0.9 kg/m3
313.15 K, 25000 kPa
  mass density: 864.5 ± 0.9 kg/m3
313.15 K, 30000 kPa
  mass density: 867.7 ± 0.9 kg/m3
313.15 K, 35000 kPa
  mass density: 870.9 ± 0.9 kg/m3
313.15 K, 40000 kPa
  mass density: 873.8 ± 1 kg/m3
313.15 K, 50000 kPa
  mass density: 879.8 ± 1 kg/m3
313.15 K, 60000 kPa
  mass density: 885.1 ± 1 kg/m3
323.15 K, 100 kPa
  mass density: 837.7 ± 0.9 kg/m3
323.15 K, 1000 kPa
  mass density: 838.6 ± 0.9 kg/m3
323.15 K, 3000 kPa
  mass density: 840.2 ± 0.9 kg/m3
323.15 K, 5000 kPa
  mass density: 841.9 ± 0.9 kg/m3
323.15 K, 10000 kPa
  mass density: 845.9 ± 0.9 kg/m3
323.15 K, 15000 kPa
  mass density: 849.8 ± 0.9 kg/m3
323.15 K, 20000 kPa
  mass density: 853.6 ± 0.9 kg/m3
323.15 K, 25000 kPa
  mass density: 857 ± 0.9 kg/m3
323.15 K, 30000 kPa
  mass density: 860.4 ± 0.9 kg/m3
323.15 K, 35000 kPa
  mass density: 863.7 ± 0.9 kg/m3
323.15 K, 40000 kPa
  mass density: 866.9 ± 1 kg/m3
323.15 K, 50000 kPa
  mass density: 873 ± 1 kg/m3
323.15 K, 60000 kPa
  mass density: 878.8 ± 1 kg/m3
333.15 K, 100 kPa
  mass density: 829 ± 0.9 kg/m3
333.15 K, 1000 kPa
  mass density: 829.8 ± 0.9 kg/m3
333.15 K, 3000 kPa
  mass density: 831.7 ± 0.9 kg/m3
333.15 K, 5000 kPa
  mass density: 833.4 ± 0.9 kg/m3
333.15 K, 10000 kPa
  mass density: 837.6 ± 0.9 kg/m3
333.15 K, 15000 kPa
  mass density: 841.6 ± 0.9 kg/m3
333.15 K, 20000 kPa
  mass density: 845.6 ± 0.9 kg/m3
333.15 K, 25000 kPa
  mass density: 849.3 ± 0.9 kg/m3
333.15 K, 30000 kPa
  mass density: 852.8 ± 0.9 kg/m3
333.15 K, 35000 kPa
  mass density: 856.2 ± 0.9 kg/m3
333.15 K, 40000 kPa
  mass density: 859.7 ± 1 kg/m3
333.15 K, 50000 kPa
  mass density: 866 ± 1 kg/m3
333.15 K, 60000 kPa
  mass density: 871.9 ± 1 kg/m3
343.15 K, 100 kPa
  mass density: 820 ± 0.9 kg/m3
343.15 K, 1000 kPa
  mass density: 821.1 ± 0.9 kg/m3
343.15 K, 3000 kPa
  mass density: 823 ± 0.9 kg/m3
343.15 K, 5000 kPa
  mass density: 825 ± 0.9 kg/m3
343.15 K, 10000 kPa
  mass density: 829.4 ± 0.9 kg/m3
343.15 K, 15000 kPa
  mass density: 833.6 ± 0.9 kg/m3
343.15 K, 20000 kPa
  mass density: 837.9 ± 0.9 kg/m3
343.15 K, 25000 kPa
  mass density: 841.7 ± 0.9 kg/m3
343.15 K, 30000 kPa
  mass density: 845.5 ± 0.9 kg/m3
343.15 K, 35000 kPa
  mass density: 849.2 ± 0.9 kg/m3
343.15 K, 40000 kPa
  mass density: 852.5 ± 1 kg/m3
343.15 K, 50000 kPa
  mass density: 859.1 ± 1 kg/m3
343.15 K, 60000 kPa
  mass density: 865 ± 1 kg/m3
353.15 K, 100 kPa
  mass density: 811.3 ± 0.8 kg/m3
353.15 K, 1000 kPa
  mass density: 812.2 ± 0.8 kg/m3
353.15 K, 3000 kPa
  mass density: 814.3 ± 0.9 kg/m3
353.15 K, 5000 kPa
  mass density: 816.2 ± 0.9 kg/m3
353.15 K, 10000 kPa
  mass density: 821 ± 0.9 kg/m3
353.15 K, 15000 kPa
  mass density: 825.7 ± 0.9 kg/m3
353.15 K, 20000 kPa
  mass density: 829.8 ± 0.9 kg/m3
353.15 K, 25000 kPa
  mass density: 834 ± 0.9 kg/m3
353.15 K, 30000 kPa
  mass density: 838 ± 0.9 kg/m3
353.15 K, 35000 kPa
  mass density: 841.7 ± 0.9 kg/m3
353.15 K, 40000 kPa
  mass density: 845.3 ± 1 kg/m3
353.15 K, 50000 kPa
  mass density: 852.1 ± 1 kg/m3
353.15 K, 60000 kPa
  mass density: 858.5 ± 1 kg/m3
363.15 K, 100 kPa
  mass density: 802.2 ± 0.8 kg/m3
363.15 K, 1000 kPa
  mass density: 803.3 ± 0.8 kg/m3
363.15 K, 3000 kPa
  mass density: 805.5 ± 0.8 kg/m3
363.15 K, 5000 kPa
  mass density: 807.6 ± 0.8 kg/m3
363.15 K, 10000 kPa
  mass density: 812.4 ± 0.9 kg/m3
363.15 K, 15000 kPa
  mass density: 817.6 ± 0.9 kg/m3
363.15 K, 20000 kPa
  mass density: 821.8 ± 0.9 kg/m3
363.15 K, 25000 kPa
  mass density: 826 ± 0.9 kg/m3
363.15 K, 30000 kPa
  mass density: 830.2 ± 0.9 kg/m3
363.15 K, 35000 kPa
  mass density: 834.2 ± 0.9 kg/m3
363.15 K, 40000 kPa
  mass density: 838.1 ± 0.9 kg/m3
363.15 K, 50000 kPa
  mass density: 845.2 ± 1 kg/m3
363.15 K, 60000 kPa
  mass density: 852 ± 1 kg/m3
